Reference: patent US4888345A, “4,8-disubstituted-1,2-dihydro and 1,2,3,4-tetrahydroimidazo-[1,5-a] pyrimidines” (American Cyanamid Company, priority 1988, dated 1989)

System: Brain-Specific Receptors of Rats (3H-benzodiazepine binding)
Experiment: Inhibition of the binding of 3H-benzodiazepine to brain-specific receptors of rats (antianxiety)
Set-up: species or system rat (Wistar strain)
Settings: rat cortex P2-synaptosomal fraction; 3H-diazepam (1.5 nM) or 3H-flunitrazepam (1.0 nM); 30 minutes in ice, pH 7.4; test concentration not given
Description: The antianxiety properties of certain of the novel compounds of the present invention have been establish in a test which measures the ability of a test compound to inhibit the binding of tritiated benzodiazepines to brain-specific receptors of mammals. A modification of the method described by R. F. Squires, et al., Nature, 266, No. 21, pg 732 (April 1977) and H. Mohler, et al., Science, 198:849 (1977) was employed.
Male albino rats (Wistar strain, weighing 150 g 200 g each) were used. The test compounds were solubilized in dimethylformamide, acetic acid, ethanol or hydrochloric acid.
Whole cortex of rats was homogenized gently in 20 volumes of ice-cold 0.32 M sucrose, centrifuged twice at 1000 g for 10 minutes and then recentrifuged at 30,000 g for 20 minutes to produce a crude P2 -synaptosomal fraction. […]
The binding assay consisted of 300 μl of the P2 -fraction suspension (0.2-0.4 mg protein), 100 μl of test drug and 100 μl of ^3 H-diazepam (1.5 nM, final concentration) or ^3 H-flunitrazepam (1.0 nM, final concentration) which was added to 1.5 ml of 50 mM Tris.HCl (pH 7.4). […] After drying at 50°-60° C. for 30 minutes, 10 ml of diluent was added and the radioactivity determined in a scintillation counter.
Inhibition of binding was calculated by the difference between total binding and binding in the presence of test compound, divided by the total binding, ×100. […]

Row | SMILES | % Inhibition of 3H-benzodiazepine binding
1 | COc1cccc(C2=CCNc3c(C(N)=O)ncn32)c1 [Example 30, 1,2-Dihydro-4-(3-methoxyphenyl)-imidazo[1,5-a]pyrimidine-8-carboxamide] | 27%
2 | NC(=O)c1ncn2c1NCC=C2c1ccc(N2CCOCC2)cc1 [Example 38, 1,2-Dihydro-4-[4-(4-morpholinyl)-phenyl]imidazo[1,5-a]pyrimidine-8-carboxamide] | 29%

System: Spontaneously Hypertensive Rats
Experiment: Hypotensive activity: reduction of mean arterial blood pressure in spontaneously hypertensive rats (method of Chan and Poorvin)
Assay type: in vivo
Settings: gavage, two doses of 100 mg/kg or less 24 hours apart; measured 28 hours after initial dose; average MABP of the rats used 160±1.5 mm Hg
Protocol: Certain of the novel compounds of the present invention are active hypotensive agents at nontoxic doses when administered to mammals. These compounds were tested for hypotensive activity by the method of P. S. Chan and D. Poorvin, Clinical and Experimental Hypertension, 1(6), 817-830 (1979). Male, 16 week old, spontaneously hypertensive rats of the Okamoto strain having an average mean arterial blood pressure of 160±1.5 mm of mercury are used in the test. One to 3 rats are used per test compound. A rat is dosed by gavage with a test compound, suspended in 2% pre-boiled starch at a concentration of 50 mg/ml, at a dose of 100 mg/kg of body weight or less, with 0.9% sodium chloride loading at a dose of 25 ml/kg of body weight. A second identical dose of the test compound, without sodium chloride loading is given 24 hours later. At 28 hours after the initial dose the mean arterial blood pressure is measured by the method of Chan and Poorvin vide supra. The procedure is repeated in a second and third rat when necessary.

Row | SMILES | MABP/mm Hg (mean arterial blood pressure after dosing)
3 | NC(=O)c1ncn2c1NCC=C2c1cccc(C(F)(F)F)c1 [Example 26, 1,2-Dihydro-4-[3-(trifluoromethyl)phenyl]imidazo-[1,5-a]pyrimidine-8-carboxamide] | 111 mm Hg
4 | NC(=O)c1ncn2c1NCC=C2c1cccc(Cl)c1 [Example 27, 4-(3-Chlorophenyl)-1,2-dihydroimidazo[1,5-a]-pyrimidine-8-carboxamide] | 132 mm Hg
5 | NC(=O)c1ncn2c1NCC=C2c1cc(Cl)ccc1Cl [Example 28, 4-(2,5-Dichlorophenyl)-1,2-dihydroimidazo[1,5-a]-pyrimidine-8-carboxamide] | 106 mm Hg
6 | NC(=O)c1ncn2c1NCC=C2c1ccccc1 [Example 29, 1,2-Dihydro-4-phenylimidazo[1,5-a]-pyrimidine-8-carboxamide] | 121 mm Hg
7 | NC(=O)c1ncn2c1NCC=C2c1cccc([N+](=O)[O-])c1 [Example 35, 1,2-Dihydro-4-(3-nitrophenyl)imidazo-[1,5-a]pyrimidine-8-carboxamide] | 139 mm Hg
8 | NC(=O)c1ncn2c1NCC=C2c1cccnc1 [Example 37, 1,2-Dihydro-4-(3-pyridinyl)imidazo-[1,5-a]pyrimidine-8-carboxamide] | 138 mm Hg
